Consider 1 compound from PMC4482662, “Engineered Trehalose Permeable to Mammalian Cells” (PLoS ONE, 2015).

The test system of the data set is rat hepatocytes. Nature of the data set: Uptake and intracellular deacetylation of acetylated trehalose in cultured rat hepatocytes (trehalase assay kit, total after NaOH hydrolysis). The class given is in vitro ADME. The following applies: 30 mM incubation. The text has this:
Rat hepatocytes were provided by the Cell Resource Center (CRC) at the Center for Engineering in Medicine at Massachusetts General Hospital. Briefly, hepatocytes were obtained from female Lewis rats using a two-step collagenase protocol. Two or three month old rat (Charles River Laboratories, Wilmington, MA) weighing 180–200 g were used as hepatocyte source and were maintained in accordance with National Research Council guidelines. Experimental protocols in practice at CRC for the use of hepatocytes in this study were approved by the subcommittee on Research Animal Care, Massachusetts General Hospital. Using a modification of the two-step collagenase perfusion method, which involved purification of cell suspension by means of centrifugation over Percoll, approximately 200 million hepatocytes per rat liver with 85–95% viability were routinely obtained, as evaluated by Trypan blue exclusion. Hepatocytes were kept on ice and were plated within 1 h of isolation.
For trehalose loading experiments, 6-well plates were treated with 25μg/mL fibronectin for 1 h prior to plating the hepatocytes, at which point the wells were washed with PBS and the hepatocytes were seeded at 1.2–1.3×10^6 cells/well. The cells were allowed 24–48 h to attach and spread in a 10% (v/v) CO2 incubator at 37°C before they were incubated with acetylated variants of trehalose. […]
The cell lysates were analyzed for protein content using a Bradford Commassie assay for cell count approximation. Trehalose content of cell lysates were measured using a trehalose assay kit following the manufacturer’s protocol. […] This solution was analyzed for total trehalose content against the trehalose controls prepared in a similar fashion, and the concentration was adjusted for the dilution due to addition of NaOH and HCl. To estimate the number of cells, protein content of the cell lysate was assessed using the Pierce^TM Coomassie Plus (Bradford) assay (Life Technologies, Grand Island, NY, USA). […]

Turning to `CC(=O)OC1C(CO)OC(OC2OC(CO)C(OC(C)=O)C(OC(C)=O)C2OC(C)=O)C(OC(C)=O)C1OC(C)=O` (stereo not shown) [6-O-Ac-Tre, trehalose hexaacetate], the “uptake compared with trehalose, 2-Act-Tre and 4-Act-Tre” value is recorded as “at least one order of magnitude higher”.
